Values joined by “and” are separate entries in the source; they are usually repeats but may differ in a detail not shown here. Identical values can stand only once. Where a SMILES comes first, the peptide text is derived from it. The star is where a group is joined. Biotin = O=C1N[C@H]2[C@H](CS[C@H]2CCCCC(=O)*)N1; Cbz = O=C(OCc1ccccc1)*; CHN2 = [N-]=[N+]=C*; Ahx = NCCCCCC(=O)O; CH2Cl = ClC*
How the values were obtained:
SrtAΔN [1] = target: T1, SrtAΔN (Staphylococcus aureus, UniProt Q2FV99); test: biochemical; type: biochemical, S. aureus; conditions: for k1 (first-order rate constant ki for covalent modification of SrtAΔN) / ki/Ki (specificity constant): 37° C., means ± S.E.M., four determinations; for k1 (first-order rate constant ki for covalent modification of SrtAΔN): pH 7.5, inhibitor 25-200 μM; for ki/Ki (specificity constant): pH 7.5
T1 construct: The region of the SrtA gene lacking the N-terminal membrane domain was then PCR-amplified; made in house; host or cells: E. coli HMS174(DE3)pLysS
Procedure: Using methods described previously, SrtAΔN activity was measured with the internally quenched substrate 4([4-(dimethylamino)phenyl]azo)-benzoyl(Dabcyl)-[…][(2-aminoethyl)-amino]napthalenel-sulphonyl (Edans) (prepared by standard Fmoc solid-phase synthesis) on a CytoFluor 4000® multi-well fluorimeter (PerSeptive Biosystems, Foster City, Calif., U.S.A.). All SrtAAN assays were performed at 37° C. (in triplicate) in 50 mM Tris/HCI (pH 7.5) containing 150 mM NaCl, 5 mM CaCl2, 5 mM NH,-Gly3 and 5 mM dithiothreitol (SrtA buffer). Wells contained approx. 10 pM of purified SrtAoN and 50 pM of substrate, in a final volume of 200, ul. The Km and kcat values for the SrtAΔN-catalysed cleavage of the internally quenched sub-strate were calculated by fitting the data points directly into the Michaelis-Menten equation for substrate hydrolysis, using GraFit® software (Erithacus Software, Horley, Surrey, U.K.).
Data from the curves were fitted, using non-linear regression analysis, to the integrated rate equation [P]=PJ1-e “-Pp”). This equation represents a first-order rate process for the formation of product P as a function of time, where kapp is the apparent rate constant and P. represents the concentration of product at a time approaching infinity. Using five different concentrations for each inhibitor (25, 50, 100, 150 and 200/μM), the values kapp and P∞were determined and utilized to evaluate the apparent second-order rate constant A for the inactivation of SrtAΔN in the presence of the substrate. The individual kinetic constants ki and Ki were then evaluated for both inhibitors from a plot of 1/A versus inhibitor concentration [I] [28], and the specificity constant k;/K; was calculated.
Data from the progress curves for SrtΔN-catalysed hydrolysis of the internally quenched substrate Dabcyl-[…]Edans in the presence of five different concentrations of inhibitors I and II (25, 50, 100, 150 and 200, W) were fitted by non-linear regression analysis to the integrated rate equation [P]=P∞(1-e^−kaPPt). The P∞. and kapp values were determined and used to evaluate the apparent second-order rate constant A for inactivation of SrtΔN in the presence of substrate. The individual kinetic constants k and K were then evaluated from a plot of 1/A versus inhibitor concentration [I], and the specificity constant for each inhibitor (kiKi) calculated. Values represent the means ±S.E.M. for four determinations.

wild-type SrtA = target: T2, wild-type SrtA (Staphylococcus aureus, UniProt Q2FV99); test: Affinity labelling of wild-type SrtA in crude S. aureus cell lysates, Western blot; type: binding; conditions: lysate probed with III; additional 24 kDa band, confirmed with antiserum
T2 construct: endogenous in cells; host or cells: S. aureus Oxford strain (ATCC 9144)
Procedure: For the disclosure of wild-type SrtA in S. aureus, a 50 ml overnight culture of the organism in LB broth was prepared. The bacterial cells were centrifuged at 3000 g for 15 min and the resulting pellet was washed in 5 ml of SrtA buffer. The washed bacteria were then resuspended in 1 ml of SrtA buffer containing 0.1 g of glass beads. The suspension was vortex-mixed continuously for 5 min followed by centrifugation at 1500 g for 15 min to remove the beads and unbroken cells. To 100 pl of purified SrtAΔN and the crude bacterial preparations, the inhibitor biotin-Ahx-Leu-Pro-Ala-Thr-CHN2 (III) was added (final concentration 50 pM) before incubation at 37° C. for 30 min.
To detect the affinity-labelled recombinant and wild-type SrtA, samples were analysed by Western-blot analysis. […] Bound antibody was detected with a goat anti-rabbit IgG alkaline phosphatase conjugate (1:20000).
Western-blotting experiments were performed with biotinAhx-Leu-Pro-Ala-Thr-CHN2 (III) to detect the presence of wildtype SrtA in crude cell lysates from S. aureus (Oxford strain; see FIG. 8B). […] In the duplicate lanes 3 and 4, which contained cell lysate “probed” with biotin-Ahx-Leu-Pro-Ala-Thr-CHN2 (III), the BCCP protein was detected along with an additional protein of apparent molecular mass 24 kDa. […]

SrtAΔN [2] = target: T1, SrtAΔN; test: Affinity labelling of recombinant SrtAΔN, Western blot with streptavidin-alkaline phosphatase; type: binding, S. aureus
Procedure: (§1) To detect the affinity-labelled recombinant and wild-type SrtA, samples were analysed by Western-blot analysis [19,24-26]. Briefly, samples were treated with denaturing treatment buffer and the proteins separated by SDS/PAGE on 4-20% (w/v) linear gradient gels, followed by semi-dry transfer to a nitrocellulose membrane (Schleicher and Schiill, Dassel, Germany). After transfer, non-specific binding sites were quenched with a 3% (w/v) solution of BSA in 20 mM Tris/HCI (pH 7.4), containing 150 mM NaCl. To detect the biotin group, the membrane was incubated with a streptavidin-alkaline phosphatase conjugate (1:500). […] Bound antibody was detected with a goat anti-rabbit IgG alkaline phosphatase conjugate (1:20000).
In lane 3, the bound fraction eluted from the column with 10 mM imidazole (purified SrtAΔN) was also analysed.

SrtB = SrtB (Staphylococcus aureus, UniProt Q2FZE3); type: binding; conditions: crude S. aureus extracts, iron not added to culture media
Procedure: as §1

[3] = target: recombinant sortase SrtAΔN (His6-tagged) (Staphylococcus aureus (Oxford strain)) (UniProt Q2FV99)
cathepsin B [4] = target: T3, cathepsin B (Homo sapiens, UniProt P07858); conditions: reference [30]; cited from earlier work
cathepsin B [5] = target: T3, cathepsin B; conditions: cathepsin B/Cbz-Phe-Phe-CH2Cl versus SrtAΔN/II

CC(C)C[C@H](NC(=O)OCc1ccccc1)C(=O)N1CCC[C@H]1C(=O)N[C@@H](C)C(=O)N[C@H](C(=O)C=[N+]=[N-])[C@@H](C)O [Inhibitor I, Cbz-Leu-Pro-Ala-Thr-CHN2] (Cbz-LPAT-CHN2)
Ki (SrtAΔN [1]): 220 nM
k1 (first-order rate constant ki for covalent modification of SrtAΔN) (SrtAΔN [1]): 5.8×10^−3 min^−1 and 5.8 ± 0.6 × 10^−3 min^−1
ki/Ki (specificity constant) (SrtAΔN [1]): 2.2×10^4 M^−1 − min^−1 and 2.2 ± 0.2 × 10^4 M^−1 − min^−1

{Biotin-Ahx}-LPAT-CHN2 [Inhibitor III]
detection of wild-type SrtA in crude S. aureus lysate (wild-type SrtA): affinity-labelled SrtA
nature of binding of biotinylated inhibitor to SrtAΔN (SrtAΔN [2]; 50 μM, 37° C., 30 min, approx. 30 kDa band labelled in crude E. coli lysate and purified fraction): active-site-directed
selectivity of labelling, SrtA versus SrtB (SrtB): selectively disclosed wild-type SrtA, but not SrtB

Cbz-Leu-Pro-Ala-Thr-CHN2 (I), peptidyl-diazomethane inhibitor (peptide)
ki (first-order rate constant of inactivation) [3]: 0.0058 min⁻¹
ki/Ki (specificity constant) [3]: 367 M⁻¹ s⁻¹

CC(C)C[C@H](NC(=O)OCc1ccccc1)C(=O)N1CCC[C@H]1C(=O)N[C@@H](C)C(=O)N[C@H](C(=O)CCl)[C@@H](C)O [Inhibitor II, Cbz-Leu-Pro-Ala-Thr-CH2Cl] (Cbz-LPAT-CH2Cl)
Ki (SrtAΔN [1]): 210 nM
k1 (first-order rate constant ki for covalent modification of SrtAΔN) (SrtAΔN [1]): 1.1×10^−2 min^−1 and 1.1 ± 0.1 × 10^−2 min^−1
ki/Ki (specificity constant) (SrtAΔN [1]): 5.3×10^4 M^−1 − min^−1 and 5.3 ± 0.6 × 10^4 M^−1 − min^−1
covalently modifies SrtAΔN more rapidly than peptidyl-diazomethane I (by ki) (SrtAΔN [1]; II versus I): approx. 2 fold
inactivates SrtAΔN more rapidly than analogous diazomethane sequence I (by specificity constants) (SrtAΔN [1]; II versus I): approx. 2 fold

Cbz-Phe-Phe-CH,Cl
ki for alkylation of the active-site cysteine residue of cathepsin B (cathepsin B [4]): 12.5 min⁻¹
ki greater than irreversible modification of SrtAΔN by peptidyl-chloromethane II (cathepsin B [5]): approx. 1000 fold

Cbz-Leu-Pro-Ala-Thr-CH2Cl (II), peptidyl-chloromethane inhibitor (peptide)
ki (first-order rate constant of inactivation) [3]: 0.011 min⁻¹
ki/Ki (specificity constant) [3]: 883 M⁻¹ s⁻¹

O=C(O)c1cc[c]([Hg][OH])cc1 [pHMB, reference compound]
effect of pre-treatment on SrtAΔN labelling by III (SrtAΔN [2]; purified SrtAΔN pre-treated with thiol-directed inhibitor before probing with III): complete diminution of SrtAΔN labelling
